Earlier results as cited in patent US20160081962A1, “N[…] DIETARY S[…] ACIDS AND NITRITE” (NITROMEGA CORP., priority 2013, published 2016).

Conditions: exogenous NO3^− intake 10 mg/kg in humans; in 30 min

O=[N+]([O-])O [NO3^−, nitrate]
increase of plasma NO2^− concentration: up to four- to five-fold
